Test results as given in patent US7378391B2, “Cyclosporin alkyne analogues and their pharmaceutical uses” (AMR Technology, Inc., priority 2004, dated 2008).
In brackets after ≈: the same amount, converted by molar mass.

Legend:
[1] = system: concanavalin A (ConA)-stimulated murine splenocytes; assay: Concanavalin A-stimulated splenocyte assay ([3H]thymidine incorporation); assay type: cell-based, BALB/c mice; conditions: for IC50: immunosuppressive activity of the novel cyclosporin alkyne analogue compound
Method: Male BALB/c mice, at 5 to 7 weeks of age, were sacrificed by CO2 inhalation. Spleens were removed and dissociated by pushing through a nylon cell strainer. The splenocytes were washed in RPMI 1640/5% fetal calf serum (FCS) and pelleted at 400×g. Red blood cells were then lysed by resuspending the cell pellet in ACK lysis buffer (150 mM NH4Cl, 1 mM KHCO3, 0.1 mM EDTA, 3 mL per spleen) for 10 min at room temperature. After pelleting at 400×g, the cells were washed by resuspending in RPMI 1640/5% FCS and repelleting. The cell pellet was resuspended in RPMI 1640/5% FCS and again passed through a cell strainer to remove cell aggregates. The cells were then counted and adjusted to 2×10^6 cells/ml in RPMI 1640/10% FCS/50 μM 2-mercaptoethanol. Cell viability was assessed by Trypan blue staining. […] The cells were cultured in a 37° C. CO2 incubator for 2 days and then pulsed with 1 μCi of [^3H]thymidine for 6 hours. Cells were harvested onto filtermats with a TomTec 96 well plate harvester and lysed with H2O. The filtermat and scintillation fluid were sealed in a plastic sleeve. [^3H]thymidine incorporation was measured with a Wallac Trilux plate counter. Initial screens were done at a fixed value of 100 ng/ml test compound. IC50s were calculated from 7 point concentration-response curves using GraphPad software.

[2] = literature value, Rich et al.; cited from earlier work

SMILES | IC50 [1] [ng/mL] | immunosuppressive activity (as determined by IC50) relative to ISATX247 ([1]; FIG. 1, compared to ISATX247) | immunosuppressive activity (as determined by IC50) relative to cyclosporin A ([1]; FIG. 1, compared to cyclosporin A) | potency in immunosuppression compared to cyclosporin A and ISATX247 ([1]; FIG. 1 legend) | relative immunosuppressive activity compared to cyclosporin A [2] [%]
CCC1NC(=O)C(C(O)C(C)CC=CC#CBr)N(C)C(=O)C(C(C)C)N(C)C(=O)C(CC(C)C)N(C)C(=O)C(CC(C)C)N(C)C(=O)C(C)NC(=O)C(C)NC(=O)C(CC(C)C)N(C)C(=O)C(C(C)C)NC(=O)C(CC(C)C)N(C)C(=O)CN(C)C1=O (stereo not shown) [Example 15, cyclosporin alkynyl bromide] | 8 |  |  |  | 
CC[C@@H]1NC(=O)[C@H]([C@H](O)[C@H](C)C/C=C/C#CC2CC2)N(C)C(=O)[C@H](C(C)C)N(C)C(=O)[C@H](CC(C)C)N(C)C(=O)[C@H](CC(C)C)N(C)C(=O)[C@@H](C)NC(=O)[C@H](C)NC(=O)[C@H](CC(C)C)N(C)C(=O)[C@H](C(C)C)NC(=O)[C@H](CC(C)C)N(C)C(=O)CN(C)C1=O [Example 33, cyclosporin cyclopropyl alkyne] | 9 (≈ 7.18 nM) | equipotent | up to two times more active | enhanced or similar potency | 
CC#CC[C@@H](C)[C@@H](O)[C@H]1C(=O)N[C@@H](CC)C(=O)N(C)CC(=O)N(C)[C@@H](CC(C)C)C(=O)N[C@@H](C(C)C)C(=O)N(C)[C@@H](CC(C)C)C(=O)N[C@@H](C)C(=O)N[C@H](C)C(=O)N(C)[C@@H](CC(C)C)C(=O)N(C)[C@@H](CC(C)C)C(=O)N(C)[C@@H](C(C)C)C(=O)N1C [known cyclosporin alkyne] |  |  |  |  | 10
CCC1NC(=O)C(C(O)C(C)CC=CC#CI)N(C)C(=O)C(C(C)C)N(C)C(=O)C(CC(C)C)N(C)C(=O)C(CC(C)C)N(C)C(=O)C(C)NC(=O)C(C)NC(=O)C(CC(C)C)N(C)C(=O)C(C(C)C)NC(=O)C(CC(C)C)N(C)C(=O)CN(C)C1=O (stereo not shown) [Example 13, cyclosporin alkynyl iodide] | 1 |  |  |  | 
